Laboratory results from patent US4795639A, “Potentiating formulations” (priority 1971, dated 1989).
Where “and” joins values, the source holds several entries; their conditions need not be identical. Identical values can stand only once.

Legend:
E. tenella = test: coccidiosis screening test in chicks, E. tenella; format: in vivo, Eimeria tenella
Procedure: (§1) "Screening tests" were performed to establish the effectiveness of the compounds of formula (I) both alone and in combination with a competitor and or an inhibitor and to determine the most useful levels of relative concentrations of each component in combatting or suppressing coccidiosis.
(§2) Groups of Ranger cockerels, housed in small, heated cages with wire floors situated in enironmentally controlled isolation rooms, were infected orally with sporulated oocysts of the Eimeria spp such as E. tenella or E. acervulina. The appropriate test compound(s), (DMHP, sulphaquinoxaline (SQX) or diaveridine (DV) or any combination of these) were incorporated in a small quantity of specially formulated laboratory ration deficient in Vitamin K (`L.D.4 mash`), as a 1/10 pre-mix, which was then mixed into the diet on a horizontal roller drum mixed and administered to groups of chicks one day prior to infection, leaving some groups as untreated controls. Administration was continued for several days, for example about 8 or 9 days.
The amount of damage, marked by lesions in the caecal walls was investigated in those chicks that died during the course of the experiment, and in those sacrificed on the final day of administration, and compared with the untreated controls as a basis for the determination of therapeutic activity. In addition the mortality rate and the percentage weight gains in the various groups were assessed. A marked or definite effect of the administered drug could be recognised even when the mortality rates were similar or identical, since the increase in the weight gains and the reduction of the extension of lesions indicated by the lesion score, is characteristic of an improvement. […]
4:1 sulphaquinoxaline/diaveridine mixtures at levels of 80/20, 60/15, 40/10 and 20/5 p.p.m. were administered alone and in combination with a wide range of low concentrations of DMHP to the birds.
The results of these screening tests are set forth in Table 4 showing the concentration of the various component compounds in parts per million of the bird's diet, the mortality from coccidiosis, the percentage weight gain, the lesion score the oocyst output, and the activity. The caecal lesion index is calculated using a score system where: […]
In addition a score of 4 is assigned to any bird that dies of coccidiosis during the experiment. [formula] In the activity column, +++, ++, +, ± and - relate respectively to very high, high, slight, doubtful and nil activity of the test drug against the Eimeria infection.

E. acervulina = test: coccidiosis screening test in chicks, E. acervulina; format: in vivo
Procedure: as §1
as §2, with “Administration was continued for several days, for example about 8 or 9 days.” left out
The amount of damage, marked by lesions in the caecal walls was investigated in those chicks that died during the course of the experiment, and in those sacrificed on the final day of administration, and compared with the untreated controls as a basis for the determination of therapeutic activity. In addition the mortality rate and the percentage weight gains in the various groups were assessed. […]

Pseudomonas aeruginosa = test: zone inhibition, pteridine in agar, drugs in well; format: cell-based; conditions: for complete zone inhibition, SMX (300) / zone including partial inhibition, SMX (300): SMX 300 μg/ml; for zone including partial inhibition, TMP (30): TMP 30 μg/ml; for complete zone inhibition, TMP + SMX (5) (100) / zone including partial inhibition, TMP + SMX (5) (100): TMP 5 + SMX 100 μg/ml
Procedure: (§3) The pteridine was included in a soya peptone medium of low thymidine content (Wellcotest Sensitivity Test Agar) contained in a Petri-dish and the other component(s) added to the well resulting from the removal of a small plug from the medium. The surface of the medium was inoculated with the test organism and then incubated.

Staphylococcus aureus = test: zone inhibition, pteridine in agar, drugs in well; format: cell-based; conditions: for complete zone inhibition, SMX (300) / zone including partial inhibition, SMX (300): SMX 300 μg/ml; for complete zone inhibition, TMP + SMX (5) (100) / zone including partial inhibition, TMP + SMX (5) (100): TMP 5 + SMX 100 μg/ml
Procedure: as §3

[1] = system: Staphylococcus aureus CN 491; test: testing discs on standard nutrient medium; format: cell-based; conditions: Staphylococcus aureus, CN491; read-out: Size of zone in cm (×6 magnification)
Proteus vulgaris CN 329 = test: testing discs on standard nutrient medium; format: cell-based; conditions: Proteus vulgaris, CN329; read-out: Size of zone in cm (×6 magnification)
[2] = system: Pseudomonas aeruginosa CN 200; test: testing discs on standard nutrient medium; format: cell-based; conditions: Pseudomonas aeruginosa, CN200; read-out: Size of zone in cm (×6 magnification)
[3] = pteridine 3 μg/ml, TMP 30 μg/ml
[4] = pteridine 10 μg/ml, TMP 30 μg/ml

CC1(C)Nc2nc(N)nc(O)c2N=C1CO [DMHP, 2-amino-4-hydroxy-6-hydroxymethyl-7,7-dimethyl-7,8-dihydropteridine]
Mortality from Coccidiosis (E. tenella; Expt. 1, 200,000 oocysts, SQX/DV/DMHP p.p.m in diet: -/-/250, -/-/90, -/-/30, -/-/10, 30/30/-, 30/30/250, 30/30/90, 30/30/30, 30/30/10): 1/5 and 2/5 and 3/5
Mortality from Coccidiosis (E. tenella; Expt. 4, 100,000 oocysts, p.p.m SQX/DV/DMHP: b374 10/-/-, b375 -/20/-, b376 -/-/10, b377 10/-/10, b378 -/20/10, b379 10/20/-, b381 10/20/10, b382 20/-/-, b383 -/40/-, b384 -/-/20, b385 20/-/20, b386 -/40/20, b387 20/40/-, b389 20/40/20): 8/10 and 6/10
Mortality from Coccidiossis (E. tenella; Expt. 5, 100,000 oocysts, SQX/DV p.p.m with DMHP 40, 20, 10, 5 p.p.m: b409-412 20/20, b413-416 26.7/13.3, b417-420 30/10, b421-424 32/8, b425-428 33.4/6.6, no DMHP: b429 20/20, b430 26.7/13.3, b431 30/10, b432 32/8, b433 33.4/6.6, DMHP alone b434-437 40, 20, 10, 5): 19/20 and 18/20 and 20/20
activity alone against infection with E. tenella (E. tenella; all levels of concentration tested): inactive
potentiation of the activity of diaveridine/sulphaquinoxaline mixtures (E. tenella; in many cases by as much as): 3 to 4 fold
Total Oocysts × 10^6 Days 5 & 6 (E. acervulina; Expt. 8, 5,000,000 oocysts, SQX/DV/DMHP p.p.m: b497-499 -/-/30, 10, 5, b500 10/10/-, b502 10/10/30, b504 10/10/10, b506 10/10/5): 0.0 × 10^6
activity alone against moderate infection with E. acervulina (E. acervulina; concentrations of 250 and 90 p.p.m): active alone
complete zone inhibition, SMX (300) (Pseudomonas aeruginosa; pteridine 3 μg/ml): 9.0 centimeters
zone including partial inhibition, SMX (300) (Pseudomonas aeruginosa; pteridine 3 μg/ml): 14.0 centimeters
zone including partial inhibition, TMP (30) (Pseudomonas aeruginosa; pteridine 3 μg/ml): 5.0 centimeters
complete zone inhibition, TMP + SMX (5) (100) (Pseudomonas aeruginosa; pteridine 3 μg/ml): 8.0 centimeters
zone including partial inhibition, TMP + SMX (5) (100) (Pseudomonas aeruginosa; pteridine 3 μg/ml): 11.0 centimeters
complete zone inhibition, SMX (300) (Pseudomonas aeruginosa; pteridine 10 μg/ml): 15.0 centimeters
zone including partial inhibition, SMX (300) (Pseudomonas aeruginosa; pteridine 10 μg/ml): 20.0 centimeters
zone including partial inhibition, TMP (30) (Pseudomonas aeruginosa; pteridine 10 μg/ml): 6.0 centimeters
complete zone inhibition, TMP + SMX (5) (100) (Pseudomonas aeruginosa; pteridine 10 μg/ml): 12.0 centimeters
zone including partial inhibition, TMP + SMX (5) (100) (Pseudomonas aeruginosa; pteridine 10 μg/ml): 15.0 centimeters
complete zone inhibition, SMX (300) (Staphylococcus aureus; pteridine 3 μg/ml): 4.0 centimeters
zone including partial inhibition, SMX (300) (Staphylococcus aureus; pteridine 3 μg/ml): 10.0 centimeters
complete zone inhibition, TMP (30) (Staphylococcus aureus; [3]): 8.0 centimeters
zone including partial inhibition, TMP (30) (Staphylococcus aureus; [3]): 10.0 centimeters
complete zone inhibition, TMP + SMX (5) (100) (Staphylococcus aureus; pteridine 3 μg/ml): 10.0 centimeters
zone including partial inhibition, TMP + SMX (5) (100) (Staphylococcus aureus; pteridine 3 μg/ml): 12.0 centimeters
complete zone inhibition, SMX (300) (Staphylococcus aureus; pteridine 10 μg/ml): 5.0 centimeters
zone including partial inhibition, SMX (300) (Staphylococcus aureus; pteridine 10 μg/ml): 12.0 centimeters
complete zone inhibition, TMP (30) (Staphylococcus aureus; [4]): 8.5 centimeters
zone including partial inhibition, TMP (30) (Staphylococcus aureus; [4]): 10.5 centimeters
complete zone inhibition, TMP + SMX (5) (100) (Staphylococcus aureus; pteridine 10 μg/ml): 10.5 centimeters
zone including partial inhibition, TMP + SMX (5) (100) (Staphylococcus aureus; pteridine 10 μg/ml): 12.0 centimeters
complete zone inhibition, TMP (30) (Staphylococcus aureus; pteridine 30 μg/ml in medium, TMP 30 μg/ml in well, about 6× magnification): 11.0 centimeters
complete zone inhibition, SMX (300) (Staphylococcus aureus; pteridine 30 μg/ml): 9.0 centimeters
zone including partial inhibition, SMX (300) (Staphylococcus aureus; pteridine 30 μg/ml): 14.5 centimeters
zone including partial inhibition, TMP (30) (Staphylococcus aureus; pteridine 30 μg/ml, TMP 30 μg/ml): 14.0 centimeters
complete zone inhibition, TMP + SMX (5) (100) (Staphylococcus aureus; pteridine 30 μg/ml): 11.5 centimeters
zone including partial inhibition, TMP + SMX (5) (100) (Staphylococcus aureus; pteridine 30 μg/ml): 14.5 centimeters
zone of inhibition at 100 µg/disc [1]: 0 mm
zone of inhibition at 100 µg/disc (Proteus vulgaris CN 329): 0 mm
zone of inhibition at 100 µg/disc [2]: 220 mm
